Values after ≈ are worked out from the molar mass of the structure shown. “Also recorded” adds a separate entry of the source.
Assays:
[1] = test system: HSV-1; test: cytopathic effect inhibition assay against HSV-1 in Vero cells; assay type: cell-based, herpes simplex virus 1 (GHSV-UL46); details: for HSV-1 EC50: Vero cells, 48 h, cytopathic effect inhibition; for HSV-1 SI: ratio of CC50 to EC50; for activity class in terms of SI-values (HSV-1): virus not named, agrees with HSV-1 SI of Table 2; for antiviral activity against HSV-1 in words: in comparison with compounds 14–16; as to activity class in terms of SI-values (HSV-1): key: inactive (SI < 2); active (SI ≥ 2)
Description: (§1) Vero cells (derived from the kidney of a normal African green monkey) were obtained from the American Type Culture Collection (ATCC, Manassas, VA, USA). The viral strains used were GHSV-UL46 for HSV-1 and the G strain for HSV-2. The Vero cells were propagated in Dulbecco’s modified Eagle’s medium (DMEM) supplemented with 10% heat-inactivated foetal bovine serum (FBS), 1% L-glutamine, HEPES buffer and 50 µg/mL gentamycin. All cells were maintained at 37 °C in a humidified atmosphere with 5% CO2 and were subcultured two times a week.
(§2) The antiviral screening was performed using a cytopathic effect inhibition assay at the Regional Center for Mycology and Biotechnology (RCMB, Al-Azhar University, Cairo, Egypt). This assay was selected to show specific inhibition of a biological function, that is, a cytopathic effect in susceptible mammalian cells. In brief, monolayers of 10,000 Vero cells adhering at the bottom of the wells in a 96-well microtiter plate were incubated for 24 h at 37 °C in a humidified incubator with 5% CO2. The plates were washed with fresh DMEM and challenged with 10^4 doses of herpes simplex 1 or 2 virus, and then the cultures were simultaneously treated with two-fold serial dilutions of the tested compound, starting from 500 µg/mL and going up to about 2 µg/mL (500, 250, 125, 62.5, …, 1.95 µg/mL) in a fresh maintenance medium; following this, they were incubated at 37 °C for 48 h. An infection control, as well as an untreated Vero cell control were made in the absence of tested compounds. […] Antiviral activity was determined by the inhibition of the cytopathic effect compared to a control, that is, the protection offered by the tested compound to the cells was scored. Three independent experiments were assessed, each containing four replicates per treatment.
(§3) After the incubation period, the media was aspirated, and then the cells were stained with a 1% crystal violet solution for 30 min. Thereafter, all excess stain was removed by rinsing the plates with tap water. The plates were allowed to dry, and then glacial acetic acid (30%) was added to all wells and mixed thoroughly. The absorbance of the plates was measured after gentle shaking on a microplate reader (Tecan Inc., Morrisville, NC, USA), at 590 nm. The viral inhibition rate was calculated as follows: [(ODtv − ODcv)/(ODcd − ODcv)] × 100% where ODtv, ODcv and ODcd indicate the absorbance of the tested compounds with virus-infected cells, the absorbance of the virus control and the absorbance of the cell control, respectively.
EC50 values were determined directly from the curve obtained by plotting the inhibition of the virus yield against the concentration of the samples. […] This index is referred to as a therapeutic index, and it was also used to determine whether a compound warranted further study.

[2] = test system: HSV-2; test: cytopathic effect inhibition assay against HSV-2 in Vero cells; assay type: cell-based, herpes simplex virus 2 (G strain); details: for HSV-2 EC50: Vero cells, 48 h, cytopathic effect inhibition; for antiviral activity against HSV-2 in words: in comparison with compounds 14–16; for HSV-2 SI: ratio of CC50 to EC50; as to activity class in terms of SI-values (HSV-2): key: inactive (SI < 2); active (SI ≥ 2)
Description: as §1, §2, §3
EC50 values were determined directly from the curve obtained by plotting the inhibition of the virus yield against the concentration of the samples. The selectivity index (SI) was calculated from the ratio of CC50 to EC50 in order to determine whether each compound had sufficient antiviral activity that exceeded its level of toxicity. This index is referred to as a therapeutic index, and it was also used to determine whether a compound warranted further study.

[3] = test system: Vero cells; test: cytotoxicity evaluation using viability assay (crystal violet); assay type: cell-based, African green monkey; details: 48 h
Description: as §1
The Vero cell lines in the cytotoxicity assay were seeded in 96-well plates at a cell concentration of 1 × 10^4 cells per well in 100 µL of the growth medium. Fresh medium containing different concentrations of the tested sample was added after 24 h of seeding. Serial two-fold dilutions of the tested compound were added to confluent cell monolayers dispensed into 96-well, flat-bottomed microtiter plates (Falcon, Jersey, NJ, USA) using a multichannel pipette. The microtiter plates were incubated at 37 °C in a humidified incubator with 5% CO2 for a period of 48 h. Three wells were used for each concentration of the tested sample. Control cells were incubated without test samples and with or without DMSO. The small percentage of DMSO present in the wells (maximal 0.1%) was not found to affect the experiment.
After the end of the incubation period, the viable cell yield was determined by a colorimetric method. In brief, the process of treatment the media with crystal violet solution and measurement of absorbance at 590 nm using a microplate reader was mentioned above. The absorbance was proportional to the number of surviving cells in the culture plate. All the results were corrected for background absorbance detected in wells without added stain. Treated samples were compared with the cell control in the absence of the tested compounds. All experiments were carried out in triplicate. The cell cytotoxicity effect of each tested compound was calculated.
Statistics were done using a one-way ANOVA test, and the percentage cell viability was calculated using Microsoft Excel®, as follows: % Cell viability = [(Mean Abscontrol− Mean Abstest metabolite)/Mean Abscontrol] × 100 where Abs equals the absorbance at 590 nm. The CC50 was estimated from graphic plots and the STATA statistical analysis package was used for the drawing of the dose response curve, in order to calculate CC50. Concerning antiviral evaluation, all experiments and data analysis were performed in RCMB, Al-Azhar University, Cairo, Egypt.

Row | SMILES | HSV-1 EC50 [1] | HSV-2 EC50 [2] | CC50 [3] | HSV-1 SI [1] | activity class in terms of SI-values (HSV-1) [1] | antiviral activity against HSV-2 in words [2] | HSV-2 SI [2] | antiviral activity against HSV-1 in words [1] | activity class in terms of SI-values (HSV-2) [2]
1 | CC=NN1C(=O)c2cccc3cccc(c23)C1=O [Compound 1] | >500 µg/mL | >500 µg/mL | 375 ± 25 µg/mL (≈ 1570 µM) | – | – | – | – | – | –
2 | CCC=NN1C(=O)c2cccc3cccc(c23)C1=O [Compound 2] | >500 µg/mL | >500 µg/mL | 317 ± 13 µg/mL (≈ 1260 µM) | – | – | – | – | – | –
3 | O=C1c2cccc3cccc(c23)C(=O)N1N=Cc1ccccc1 [Compound 3] | 158 ± 1.8 µg/mL | >500 µg/mL | 196 ± 22 µg/mL (≈ 653 µM) | 1.2 | – | – | – | – | –
4 | COc1ccccc1C=NN1C(=O)c2cccc3cccc(c23)C1=O [Compound 4] | 189 ± 3.2 µg/mL | 312 ± 9.6 µg/mL | 486 ± 18 µg/mL (≈ 1470 µM) | 2.6 | active | low activity | 1.6 | – | –
5 | COc1cccc(C=NN2C(=O)c3cccc4cccc(c34)C2=O)c1 [Compound 5] | 176 ± 4.6 µg/mL | >500 µg/mL | 452 ± 9 µg/mL (≈ 1370 µM) | 2.6 | active | – | – | low activity | –
6 | O=C1c2cccc3cccc(c23)C(=O)N1N=Cc1cccc([N+](=O)[O-])c1 [Compound 6] | 174 ± 1.8 µg/mL | >500 µg/mL | 316 ± 11 µg/mL (≈ 915 µM) | 1.8 | – | – | – | low activity | –
7 | O=C1c2cccc3cccc(c23)C(=O)N1N=Cc1ccc(O)cc1 [Compound 7] | 113 ± 4.6 µg/mL | 220 ± 3.8 µg/mL | 412 ± 24 µg/mL (≈ 1300 µM) | 3.6 | active | low activity | 1.9 | good antiviral effect | –
8 | CN(C)c1ccc(C=NN2C(=O)c3cccc4cccc(c34)C2=O)cc1 [Compound 8] | >500 µg/mL | >500 µg/mL | 289 ± 13 µg/mL (≈ 842 µM) | – | – | – | – | – | –
9 | COc1cc(C=NN2C(=O)c3cccc4cccc(c34)C2=O)ccc1O [Compound 9] | 78.3 ± 1.5 µg/mL | 108 ± 4.1 µg/mL | 236 ± 8 µg/mL (≈ 681 µM) | 3.0 | active | – | 2.2 | good antiviral effect | active
10 | COc1ccc(C=NN2C(=O)c3cccc4cccc(c34)C2=O)c(OC)c1 [Compound 10] | 149 ± 5.3 µg/mL | 416 ± 8.2 µg/mL | 380 ± 16 µg/mL (≈ 1050 µM) | 2.6 | active | low activity | 0.9 | low activity | –
11 | O=C1c2cccc3cccc(c23)C(=O)N1N=Cc1ccc(Cl)cc1Cl [Compound 11] | >500 µg/mL | >500 µg/mL | 316 ± 24 µg/mL (≈ 856 µM) | – | – | – | – | – | –
12 | O=C1c2cccc3cccc(c23)C(=O)N1N=Cc1cccnc1 [Compound 13] | 117.2 ± 3.1 µg/mL | 308 ± 7.1 µg/mL | 458 ± 27 µg/mL (≈ 1520 µM) | 3.9 | active | low activity | 1.5 | – | –
13 | O=C1c2cccc3cccc(c23)C(=O)N1N=Cc1ccco1 [Compound 14] | 19.6 ± 0.9 µg/mL | 71.8 ± 1.8 µg/mL | 321 ± 23 µg/mL (≈ 1110 µM) | 16.4 | – | – | 4.5 | most active; also recorded: highest effects | active
14 | O=C1c2cccc3cccc(c23)C(=O)N1N=Cc1ccsc1 [Compound 15] | 16.2 ± 1.1 µg/mL | 56.7 ± 2.6 µg/mL | 180 ± 8 µg/mL (≈ 588 µM) | 11.1 | – | – | 3.2 | most active; also recorded: highest effects | active
15 | C=CCNC(=S)NN1C(=O)c2cccc3cccc(c23)C1=O [Compound 16] | 17.8 ± 1.4 µg/mL | 292 ± 4.8 µg/mL | 96 ± 12 µg/mL (≈ 308 µM) | 5.4 | active | – | 0.3 | highest effects | –
16 | O=C1c2cccc3cccc(c23)C(=O)N1NC(=S)Nc1ccccc1 [Compound 17] | 236 ± 4.9 µg/mL | >500 µg/mL | 518 ± 34 µg/mL (≈ 1490 µM) | 2.2 | active | – | – | low activity | –
17 | O=C1c2cccc3cccc(c23)C(=O)N1NC(=S)NC1CCCCC1 [Compound 18] | 319 ± 3.7 µg/mL | >500 µg/mL | 482 ± 14 µg/mL (≈ 1360 µM) | 1.5 | – | – | – | low activity | –
18 | O=C1CCC(=O)N1N1C(=O)c2cccc3cccc(c23)C1=O [Compound 19] | >500 µg/mL | >500 µg/mL | 220 ± 16 µg/mL (≈ 748 µM) | – | – | – | – | – | –
19 | O=C1C=CC(=O)N1N1C(=O)c2cccc3cccc(c23)C1=O [Compound 20] | >500 µg/mL | >500 µg/mL | 220 ± 16 µg/mL (≈ 753 µM) | – | – | – | – | – | –
20 | O=C1c2ccccc2C(=O)N1N1C(=O)c2cccc3cccc(c23)C1=O [Compound 21] | 102 ± 5.8 µg/mL | 374 ± 3.7 µg/mL | 490 ± 21 µg/mL (≈ 1430 µM) | 4.8 | – | low activity | 1.3 | good antiviral effect | –
21 | O=C1c2cccc3cccc(c23)C(=O)N1N1C(=O)c2cccc3cccc(c23)C1=O [Compound 22] | 74.6 ± 3.4 µg/mL | 428 ± 10.2 µg/mL | 560 ± 46 µg/mL (≈ 1430 µM) | 7.5 | – | – | 1.3 | good antiviral effect | –
22 | O=C1c2cccc3cccc(c23)C(=O)N1n1c(=O)c2cc3c(=O)oc(=O)c3cc2c1=O [Compound 23] | 176 ± 2.4 µg/mL | >500 µg/mL | 412 ± 18 µg/mL (≈ 999 µM) | 2.3 | – | – | – | low activity | –
23 | O=C1c2cccc3cccc(c23)C(=O)N1n1c(=O)c2cc3c(=O)n(N4C(=O)c5cccc6cccc(c56)C4=O)c(=O)c3cc2c1=O [Compound 24] | >500 µg/mL | >500 µg/mL | 386 ± 17 µg/mL (≈ 636 µM) | – | – | – | – | – | –

Reference: publication PMC6272685, “Docking and Antiherpetic Activity of 2-Aminobenzo[de]-isoquinoline-1,3-diones” (Molecules, 2015)
